Assays:
Assay in all cases: MIC susceptibility testing
Assay type in all cases: cell-based
Aspergillus flavus 28445 = system: Aspergillus flavus 28445; design: key to MIC, 50% inhibition: -: indicates absence of isolates with 50% inhibition endpoint; details: CLSI M38-A2
Procedure: (§1) Occidiofungin was purified from a liquid culture of Burkholderia contaminans MS14 as previously described ([21]). MIC susceptibility testing was performed according to the CLSI M27-A3 and M38-A2 standards for the susceptibility testing of yeasts and filamentous fungi, respectively. S. cerevisiae deletion mutants were obtained from the commercially available BY4741 deletion library (Thermo Scientific).

[1] = system: Aspergillus fumigatus 28434; design: key to MIC, 50% inhibition: -: indicates absence of isolates with 50% inhibition endpoint; details: CLSI M38-A2
Procedure: as §1

Mucor fragilis 27782 = system: Mucor fragilis 27782; design: key to MIC, 50% inhibition: -: indicates absence of isolates with 50% inhibition endpoint; details: CLSI M38-A2
Procedure: as §1

[2] = system: Cryptococcus neoformans 27708; design: key to MIC, 50% inhibition: -: indicates absence of isolates with 50% inhibition endpoint; details: CLSI M27-A3; 72 hours
Procedure: as §1

[3] = system: Cryptococcus neoformans 28446; design: key to MIC, 50% inhibition: -: indicates absence of isolates with 50% inhibition endpoint; details: CLSI M27-A3; 72 hours
Procedure: as §1

Candida albicans 28102 = system: Candida albicans 28102; design: key to MIC, 50% inhibition: -: indicates absence of isolates with 50% inhibition endpoint; details: CLSI M27-A3
Procedure: as §1

[4] = system: Aspergillus fumigatus 28435; design: key to MIC, 50% inhibition: -: indicates absence of isolates with 50% inhibition endpoint; details: CLSI M38-A2
Procedure: as §1

Fusarium oxysporum 27718 = system: Fusarium oxysporum 27718; design: key to MIC, 50% inhibition: -: indicates absence of isolates with 50% inhibition endpoint; details: CLSI M38-A2
Procedure: as §1

[5] = system: Candida parapsilosis 28174; design: key to MIC, 50% inhibition: -: indicates absence of isolates with 50% inhibition endpoint; details: CLSI M27-A3
Procedure: as §1

Aspergillus flavus 28517 = system: Aspergillus flavus 28517; design: key to MIC, 50% inhibition: -: indicates absence of isolates with 50% inhibition endpoint; details: CLSI M38-A2
Procedure: as §1

Fusarium solani 28386 = system: Fusarium solani 28386; design: key to MIC, 50% inhibition: -: indicates absence of isolates with 50% inhibition endpoint; details: CLSI M38-A2
Procedure: as §1

Candida krusei 9541 = system: Candida krusei 9541; design: key to MIC, 50% inhibition: -: indicates absence of isolates with 50% inhibition endpoint; details: CLSI M27-A3
Procedure: as §1

Candida glabrata 25742 = system: Candida glabrata 25742; design: key to MIC, 50% inhibition: -: indicates absence of isolates with 50% inhibition endpoint; details: CLSI M27-A3
Procedure: as §1

Aspergillus flavus 28455 = system: Aspergillus flavus 28455; design: key to MIC, 50% inhibition: -: indicates absence of isolates with 50% inhibition endpoint; details: CLSI M38-A2
Procedure: as §1

Rhizopus oryzae 28403 = system: Rhizopus oryzae 28403; design: key to MIC, 50% inhibition: -: indicates absence of isolates with 50% inhibition endpoint; details: CLSI M38-A2
Procedure: as §1

Candida tropicalis 9624 = system: Candida tropicalis 9624; design: key to MIC, 50% inhibition: -: indicates absence of isolates with 50% inhibition endpoint; details: CLSI M27-A3
Procedure: as §1

[6] = system: Rhizopus microsporus 27785; design: key to MIC, 50% inhibition: -: indicates absence of isolates with 50% inhibition endpoint; details: CLSI M38-A2
Procedure: as §1

Mucor racemosus 27784 = system: Mucor racemosus 27784; design: key to MIC, 50% inhibition: -: indicates absence of isolates with 50% inhibition endpoint; details: CLSI M38-A2
Procedure: as §1

[7] = system: Mucor circinelloides 19445; details: CLSI M38-A2
Procedure: as §1

Candida krusei 28570 = details: CLSI M27-A3
Procedure: as §1

Candida tropicalis 28272 = details: CLSI M27-A3
Procedure: as §1

## occidiofungin
Aspergillus flavus 28445; 24 hours
  MIC, 50% inhibition: 2 µg/mL
  MIC, 100% inhibition: 4 µg/mL
Aspergillus flavus 28445; 48 hours
  MIC, 50% inhibition: -
  MIC, 100% inhibition: 4 µg/mL
[1]; 24 hours
  MIC, 50% inhibition: -
  MIC, 100% inhibition: 4 µg/mL
[1]; 48 hours
  MIC, 50% inhibition: -
  MIC, 100% inhibition: 4 µg/mL
Mucor fragilis 27782; 24 hours
  MIC, 50% inhibition: 2 µg/mL
  MIC, 100% inhibition: 4 µg/mL
Mucor fragilis 27782; 48 hours
  MIC, 50% inhibition: -
  MIC, 100% inhibition: 4 µg/mL
[2]
  MIC, 50% inhibition: -
  MIC, 100% inhibition: 2 µg/mL
[3]
  MIC, 50% inhibition: -
  MIC, 100% inhibition: 1 µg/mL
Candida albicans 28102; 24 hours
  MIC, 50% inhibition: -
  MIC, 100% inhibition: 2 µg/mL
Candida albicans 28102; 48 hours
  MIC, 50% inhibition: -
  MIC, 100% inhibition: 2 µg/mL
[4]; 24 hours
  MIC, 50% inhibition: -
  MIC, 100% inhibition: 2 µg/mL
[4]; 48 hours
  MIC, 50% inhibition: -
  MIC, 100% inhibition: 2 µg/mL
Fusarium oxysporum 27718; 24 hours
  MIC, 50% inhibition: 2 µg/mL
  MIC, 100% inhibition: 4 µg/mL
Fusarium oxysporum 27718; 48 hours
  MIC, 50% inhibition: -
  MIC, 100% inhibition: 4 µg/mL
[5]; 24 hours
  MIC, 50% inhibition: -
  MIC, 100% inhibition: 4 µg/mL
[5]; 48 hours
  MIC, 50% inhibition: -
  MIC, 100% inhibition: 4 µg/mL
Aspergillus flavus 28517; 24 hours
  MIC, 50% inhibition: -
  MIC, 100% inhibition: 4 µg/mL
Aspergillus flavus 28517; 48 hours
  MIC, 50% inhibition: -
  MIC, 100% inhibition: 4 µg/mL
Fusarium solani 28386; 24 hours
  MIC, 50% inhibition: 2 µg/mL
  MIC, 100% inhibition: 4 µg/mL
Fusarium solani 28386; 48 hours
  MIC, 50% inhibition: -
  MIC, 100% inhibition: 4 µg/mL
Candida krusei 9541; 24 hours
  MIC, 50% inhibition: 2 µg/mL
  MIC, 100% inhibition: 4 µg/mL
Candida krusei 9541; 48 hours
  MIC, 50% inhibition: -
  MIC, 100% inhibition: 4 µg/mL
Candida glabrata 25742; 24 hours
  MIC, 50% inhibition: -
  MIC, 100% inhibition: 2 µg/mL
Candida glabrata 25742; 48 hours
  MIC, 50% inhibition: -
  MIC, 100% inhibition: 2 µg/mL
Aspergillus flavus 28455; 24 hours
  MIC, 50% inhibition: 2 µg/mL
  MIC, 100% inhibition: 4 µg/mL
Aspergillus flavus 28455; 48 hours
  MIC, 50% inhibition: -
  MIC, 100% inhibition: 4 µg/mL
Rhizopus oryzae 28403; 24 hours
  MIC, 50% inhibition: 4 µg/mL
  MIC, 100% inhibition: 8 µg/mL
Rhizopus oryzae 28403; 48 hours
  MIC, 50% inhibition: -
  MIC, 100% inhibition: 8 µg/mL
Candida tropicalis 9624; 24 hours
  MIC, 50% inhibition: -
  MIC, 100% inhibition: 2 µg/mL
Candida tropicalis 9624; 48 hours
  MIC, 50% inhibition: -
  MIC, 100% inhibition: 2 µg/mL
[6]; 24 hours
  MIC, 50% inhibition: 2 µg/mL
  MIC, 100% inhibition: 4 µg/mL
[6]; 48 hours
  MIC, 50% inhibition: -
  MIC, 100% inhibition: 8 µg/mL
Mucor racemosus 27784; 24 hours
  MIC, 50% inhibition: 2 µg/mL
  MIC, 100% inhibition: 4 µg/mL
Mucor racemosus 27784; 48 hours
  MIC, 50% inhibition: -
  MIC, 100% inhibition: 4 µg/mL
[7]; 24 hours
  MIC, 50% inhibition: 4 µg/mL
  MIC, 100% inhibition: 8 µg/mL
[7]; 48 hours
  MIC, 50% inhibition: 4 µg/mL
  MIC, 100% inhibition: 8 µg/mL
Candida krusei 28570; 24 hours
  MIC, 50% inhibition: 4 µg/mL
  MIC, 100% inhibition: 8 µg/mL
Candida krusei 28570; 48 hours
  MIC, 50% inhibition: 4 µg/mL
  MIC, 100% inhibition: 8 µg/mL
Candida tropicalis 28272; 24 hours
  MIC, 50% inhibition: 4 µg/mL
  MIC, 100% inhibition: 8 µg/mL
Candida tropicalis 28272; 48 hours
  MIC, 50% inhibition: 4 µg/mL
  MIC, 100% inhibition: 8 µg/mL

From article PMC6325233, “A Novel Actin Binding Drug with In Vivo Efficacy” (Antimicrobial Agents and Chemotherapy, 2018)
